Source: publication PMC9923724, “Half sandwich-type osmium, ruthenium, iridium and rhodium complexes with bidentate glycosyl heterocyclic ligands induce cytostasis in platinum-resistant ovarian cancer cells and bacteriostasis in Gram-positive multiresistant bacteria” (Frontiers in Chemistry, 2023)

Experiments:
[1] = test system: A2780 ovarian cancer cells; assay: SRB assay (cytostasis, 48 h) on A2780 cells; assay type: cell-based; details: 48 h treatment
Description: First, we assessed a set of osmium complexes (similar to Ia [[Kacsir et al., 2022]) in Figure 1] and their sugar-derived ligands, in which the benzoyl protective groups on the carbohydrate moiety were replaced by aliphatic acyl groups of different chain length (straight chain C3-C7–CO). Osmium was selected as a central ion, since osmium complexes had the best biological activity in our previous studies ([Balázs et al., 2022]; [Kacsir et al., 2022]). These compounds were tested on A2780 ovarian cancer cells for toxicity and cytostasis. The therapy of ovarian cancer is centered around platinum compounds ([Brown et al., 2019]; [Sipos et al., 2021]), therefore, it was logical to use a cellular model of ovarian cancer for the initial testing of the compounds. Toxicity was assessed using the MTT assay that measures the activity of mitochondrial complex I. We chose 4 h long treatment as in an MTT assay this time point is suitable to detect rapid, direct toxicity. Cytostasis was assessed after 48 h of treatment using the SRB assay that assesses protein content that corresponds to cell count. The characteristics of the compounds are detailed in Table 2.
3 × 10^3 A2780 cells, were plated to 96 well plates. Cells were treated with the compounds in the concentrations indicated for either 4 h for an MTT assay or for 48 h for an SRB assay. Data is represented as average ± SD, from three biological replicates; individual assays were performed in duplicates. Values were normalized for vehicle treated cells, absorbance for vehicle treated cells equals to 1. […] Except for the Os-6 complex, Two-way ANOVA test was performed and all values were compared with each other (Tukey’s post hoc test). […] Non-linear regression was performed on the data.
3 × 10^3 A2780 cells, 2 × 10^3 ID8 cells and 4 × 10^3 primary fibroblasts were plated to 96 well plates. Cells were treated with the compounds in the concentrations indicated for either 4 h for an MTT assay or for 48 h for an SRB assay. Data is represented as average ± SD, from three biological replicates; individual assays were performed in duplicates. Values were normalized for vehicle treated cells, absorbance for vehicle treated cells equals to 1. Statistical significance was assessed using two-way ANOVA test comparing the free ligand and each complex as a complex-ligand pair. Before the test normality was assessed using the D’Agostino-Pearson test. The ID8 SRB Ir-7+L-7 dataset had lognormal distribution. […] All other datasets had normal distribution. For better visibility the p values are presented in an excel sheet at https://figshare.com/s/2c942a812caea8869a67. Non-linear regression was performed on the A2780 SRB and the ID8 SRB datasets.
The assay was performed similar to ([Kovács et al., 2019]). Cells were seeded in 96 well plates the day before the assay. Cells were treated with the compounds for 48 h. Cells were fixed with 10% trichloroacetic acid (TCA). Fixed cells were washed in distilled water 3 times followed by staining with SRB (0.4 m/V% dissolved in 1% acetic acid) for 10 min. Stained cells were washed in 1% acetic acid 5 times; acetic acid was removed and cells were left to dry. Protein-bound SRB was released by adding 100 µl 10 mM Tris base. Plates were measured in a plate photometer (Thermo Scientific Multiscan GO spectrophotometer, Waltham, MA, United States) at 540 nm. On each plate wells were designed to contain vehicle-treated cells. In calculations the readings for these wells was considered as 1 and all readings were expressed relative to these values.
Statistical analysis was performed using 8.0.1 version of Graphpad Prism. Values were tested for normal distribution using the D’Agostino and Pearson normality test. When necessary, values were log normalized or were normalized using the Box-Cox normalization method ([Box and Cox, 1964]) as indicated in the figure captions. […]

[2] = test system: L428 Hodgkin lymphoma cells; assay: Cell proliferation on L428 cells (counted in Burker chamber); assay type: cell-based; details: head says SRB, cells counted using a Burker chamber
Description: 3 × 10^3 Capan2 cells, 2 × 10^3 Saos cells and 8 × 10^3 L428 were plated to 96 well plates. Cells were treated with the compounds in the concentrations for 48 h. Then for Capan2 and Saos SRB assay was performed, L428 cells were counted using a Burker chamber. Data is represented as average ± SD, from three biological replicates; individual assays were performed in duplicates. Values were normalized for vehicle treated cells, absorbance for vehicle treated cells equals to 1. Normality was checked using the Shapiro-Wilk test. The Saos Os-7 dataset was normalized using the Box-Cox method, other datasets had normal distribution. Each complex was individually assessed for statistical significance using One-way ANOVA test followed by Dunnett’s post hoc test; all values were compared to the values of the lowest concentration. For better visibility the p values are presented in an excel sheet at https://figshare.com/s/2c942a812caea8869a67. Non-linear regression was performed on the Capan2 and Saos datasets.
Cells were seeded in 96 well plates the day before the assay. Cells were treated with the compounds for […]. Cells were counted using a Burker chamber. On each plate wells were designed to contain untreated cells. In calculations the readings for these wells was considered as 1 and all readings were expressed relative to these values.

[3] = test system: vancomycin-resistant Enterococcus (VRE) clinical isolates; assay: Broth microdilution MIC, clinical VRE isolates; assay type: cell-based, E. faecium; details: for MIC against clinical VRE isolates (as a group): 3 clinical VRE isolates; for MIC, VRE 25 051: clinical isolate 25 051, nephrostoma; for MIC, VRE 25 051 / MIC, VRE 25 498 / MIC, VRE 27 085: 2018; for MIC, VRE 25 498: clinical isolate 25 498, rectal swab; for MIC, VRE 27 085: clinical isolate 27 085, wound
Description: The MIC values of the complexes were determined against the reference strains of S. aureus (ATCC29213) and E. faecalis. (ATCC29212) and against clinical VRE and MRSA isolates by microdilution assays (repeated at least twice in duplicates) as described in Materials and Methods. The numbers indicate how many isolates were susceptible to the compound out of those tested; i.e., 1/6 stands for 1 isolate was susceptible out of 6 tested. […] Cells were harvested and lysed. Cellular proteins was separated on a 10% SDS-PAGE gel and were blotted. Blots were probed with 4HNE antibody (top blot), the lower blot was stained with amido black. Arrows point at band of interest. Experiments were repeated three times and a representative blot is shown. On the blots brightness and contrast were adjusted. […] Each was matched to a substance and strain by its position over the x-axis categories. / Ir-7: ND and 0/3 (left plot) and ND and 0/6 (right plot) were matched to E. faecalis/VRE and S. aureus/MRSA by position only.
We used a set of clinical isloates of S. aureus and E. faecium that were collected at the Medical Center of the University of Debrecen (Hungary) between 01. 01. 2018.—31. 12. 2020. The clinical isolates were identified using a Microflex MALDI-TOF mass spectrometer (Bruker, Billerica, MA, United States). Antibiotic susceptibility of the isolates was tested following the European Committee on Antimicrobial Susceptibility Testing ([EUCAST, 2021]) guidelines valid at the time of collection.
Microdilution experiments were performed according to the standards of EUCAST ([EUCAST, 2021]). […] The inoculated plates were incubated for 24 h at 37°C then were assessed visually. […] All experiments were performed at least twice in duplicates.

| SMILES | A2780 SRB IC50 [1] | A2780 SRB Max. (maximal inhibition) [1] [%] | IC50 [1] [µM] | L428 maximal inhibition (cell count) [2] [%] | MIC against clinical VRE isolates (as a group) [3] | MIC, VRE 25 051 [3] | MIC, VRE 25 498 [3] | MIC, VRE 27 085 [3] |
| --- | --- | --- | --- | --- | --- | --- | --- | --- |
| Cc1c(C)c(C)[c-](C)c1C.F[P-](F)(F)(F)(F)F.O=C(OCC1OC(n2cc(-c3ccc4ccccc4n3)nn2)C(OC(=O)c2ccccc2)C(OC(=O)c2ccccc2)C1OC(=O)c1ccccc1)c1ccccc1.[Cl][Ir+2] (mixture of isomers) [Ir-7] | submicromolar or low micromolar | >90 | 0.891 | >90 | no activity | 40< µM | 40< µM | 40< µM |
| Cc1ccc(C(C)C)cc1.F[P-](F)(F)(F)(F)F.O=C(OCC1OC(n2cc(-c3ccc4ccccc4n3)nn2)C(OC(=O)c2ccccc2)C(OC(=O)c2ccccc2)C1OC(=O)c1ccccc1)c1ccccc1.[Cl][Os+] (mixture of isomers) [Os-7] | submicromolar or low micromolar | >90 | 0.578 | >90 | 10 µM | 10 µM | 10 µM | 10 µM |
| Cc1ccc(C(C)C)cc1.F[P-](F)(F)(F)(F)F.O=C(OCC1OC(n2cc(-c3ccc4ccccc4n3)nn2)C(OC(=O)c2ccccc2)C(OC(=O)c2ccccc2)C1OC(=O)c1ccccc1)c1ccccc1.[Cl][Ru+] (mixture of isomers) [Ru-7] | submicromolar or low micromolar | >90 | 0.847 | 52.73 | 5 µM | 5 µM | 5 µM | 5 µM |
